Structures can show the parent of a compound that is named as a salt.

With `Clc1ccc([C@H]2CCNC[C@@H]2OCc2ccc3ccccc3c2)cc1` (racemic) (as salt: hydrochloride) [Example 12, (3RS,4RS)-4-(4-chloro-phenyl)-3-(naphthalen-2-ylmethoxy)-piperidine], the melting point was 159 to 161 °C (dec.).

These data come from patent US20060079533A1, “Methods of treating alzheimer's disease” (priority 2001, published 2006).
